In patent US9802921B2, “Fluoromethyl-substituted pyrrole carboxamides iv” (Grünenthal GmbH, priority 2013, dated 2017) one finds inhibition data, which are given here for 23 compounds.

In the experiment the target is T1, Human CaV2.2 channels (Homo sapiens, UniProt Q00975).
T1 construct: expressed in transfected cells
The experiment can be described thus: Fluorescent assay for CaV2.2 channels using potassium depolarization to induce channel opening (FLIPR, Fluo 4). Format: cell-based. The settings on record: read-out: Activity Category: %-Inhib (CaV2.2) @3 μM @30 mM KCl; 3 μM test compound; 30 mM KCl as printed; HEK293 cells stably expressing human CaV2.2. From the text: In the process, the Ca^2+ influx is quantified in the FLIPR assay with the aid of a Ca^2+-sensitive dye (type Fluo-4, Molecular Probes Europe BV, Leiden, the Netherlands) in a fluorescent imaging plate reader (FLIPR 3, Molecular Devices, Sunnyvale, USA), as described hereinafter.
Human CaV2.2 channels were stably expressed in HEK293 cells together with alpha2-delta and beta subunits of voltage gated calcium channels. In addition, an inwardly rectifying potassium channel (Kir2.3) was stably expressed in these cells to augment control of the cell membrane potential by the concentration of extracellular potassium ions. Raise of the extracellular potassium concentration leads to depolarization of the membrane potential and thus regulates the voltage dependent state of CaV2.2 channels. For preparation, cells were seeded in black poly-D-lysine coated 96-well plates (Becton Dickinson, Biocoat 4640) in 100 μL medium [500 mL DMEM/F-12 plus Glutamax (Invitrogen 31331-093) plus 5.5 mL MEM NEAA 100× (Invitrogen 11140-035) plus 50 mL FBS decomplemented (Invitrogen 10270-106) plus 200 μg/mL Geneticin (Invitrogen 10131-027) plus 50 μg/mL Hygromycin B (Invitrogen 10687-010) plus 2 μg/mL Blasticidin (anti-bl5b Invivo-Gen) plus 0.2 μg/mL Puromycin (A 11138-03)] at a cell density of 30.000 cells per well. Plates were incubated at 37° C. (5% CO2) for 20 to 23 h. On the day of experiment medium was discarded and cells were loaded with Fluo 4 by addition of 100 μL of basic assay buffer (10 mM HEPES, 1 mM KCl, 149 mM NaCl, 0.8 mM CaCl2, 1.7 mM MgCl2, 10 mM Glucose, 0.1% BSA. pH 7.4) containing 2 μM Fluo 4 (Molecular Probes; F-14201), 0.01% pluronic acid (Molecular Probes; P-6866) and 2.5 mM probenecid (Molecular Probes; P36400). Cells were incubated in the dark at 25° C. for 60 min. Then dye containing buffer was discarded and 100 μL basic (1 mM KCl) or alternative (30 mM KCl) assay buffer was added. The alternative assay buffer contained altered concentrations of KCl (30 mM) and NaCl (120 mM) and was used in order to promote the inactivated channel state. After that 25 μL of basic or alternative assay buffer with or without test compound were added and cells were incubated again in the dark at 25° C. for 15 min. Fluorescence intensity was measured on a FLIPR 3 instrument (Molecular Devices Corp., Sunnyvale, Calif.) with excitation at 480 nm and emission at 535 nm. After continuously reading fluorescence for 30 sec, 50 μL of basic assay buffer containing 210 mM KCl (NaCl omitted) were added for depolarization. Peak fluorescent signal intensity was determined and the amplitude of the peak signal, normalized to base line, was used to measure channel inhibition by test compounds.

T1 sequence (Q00975 whole entry): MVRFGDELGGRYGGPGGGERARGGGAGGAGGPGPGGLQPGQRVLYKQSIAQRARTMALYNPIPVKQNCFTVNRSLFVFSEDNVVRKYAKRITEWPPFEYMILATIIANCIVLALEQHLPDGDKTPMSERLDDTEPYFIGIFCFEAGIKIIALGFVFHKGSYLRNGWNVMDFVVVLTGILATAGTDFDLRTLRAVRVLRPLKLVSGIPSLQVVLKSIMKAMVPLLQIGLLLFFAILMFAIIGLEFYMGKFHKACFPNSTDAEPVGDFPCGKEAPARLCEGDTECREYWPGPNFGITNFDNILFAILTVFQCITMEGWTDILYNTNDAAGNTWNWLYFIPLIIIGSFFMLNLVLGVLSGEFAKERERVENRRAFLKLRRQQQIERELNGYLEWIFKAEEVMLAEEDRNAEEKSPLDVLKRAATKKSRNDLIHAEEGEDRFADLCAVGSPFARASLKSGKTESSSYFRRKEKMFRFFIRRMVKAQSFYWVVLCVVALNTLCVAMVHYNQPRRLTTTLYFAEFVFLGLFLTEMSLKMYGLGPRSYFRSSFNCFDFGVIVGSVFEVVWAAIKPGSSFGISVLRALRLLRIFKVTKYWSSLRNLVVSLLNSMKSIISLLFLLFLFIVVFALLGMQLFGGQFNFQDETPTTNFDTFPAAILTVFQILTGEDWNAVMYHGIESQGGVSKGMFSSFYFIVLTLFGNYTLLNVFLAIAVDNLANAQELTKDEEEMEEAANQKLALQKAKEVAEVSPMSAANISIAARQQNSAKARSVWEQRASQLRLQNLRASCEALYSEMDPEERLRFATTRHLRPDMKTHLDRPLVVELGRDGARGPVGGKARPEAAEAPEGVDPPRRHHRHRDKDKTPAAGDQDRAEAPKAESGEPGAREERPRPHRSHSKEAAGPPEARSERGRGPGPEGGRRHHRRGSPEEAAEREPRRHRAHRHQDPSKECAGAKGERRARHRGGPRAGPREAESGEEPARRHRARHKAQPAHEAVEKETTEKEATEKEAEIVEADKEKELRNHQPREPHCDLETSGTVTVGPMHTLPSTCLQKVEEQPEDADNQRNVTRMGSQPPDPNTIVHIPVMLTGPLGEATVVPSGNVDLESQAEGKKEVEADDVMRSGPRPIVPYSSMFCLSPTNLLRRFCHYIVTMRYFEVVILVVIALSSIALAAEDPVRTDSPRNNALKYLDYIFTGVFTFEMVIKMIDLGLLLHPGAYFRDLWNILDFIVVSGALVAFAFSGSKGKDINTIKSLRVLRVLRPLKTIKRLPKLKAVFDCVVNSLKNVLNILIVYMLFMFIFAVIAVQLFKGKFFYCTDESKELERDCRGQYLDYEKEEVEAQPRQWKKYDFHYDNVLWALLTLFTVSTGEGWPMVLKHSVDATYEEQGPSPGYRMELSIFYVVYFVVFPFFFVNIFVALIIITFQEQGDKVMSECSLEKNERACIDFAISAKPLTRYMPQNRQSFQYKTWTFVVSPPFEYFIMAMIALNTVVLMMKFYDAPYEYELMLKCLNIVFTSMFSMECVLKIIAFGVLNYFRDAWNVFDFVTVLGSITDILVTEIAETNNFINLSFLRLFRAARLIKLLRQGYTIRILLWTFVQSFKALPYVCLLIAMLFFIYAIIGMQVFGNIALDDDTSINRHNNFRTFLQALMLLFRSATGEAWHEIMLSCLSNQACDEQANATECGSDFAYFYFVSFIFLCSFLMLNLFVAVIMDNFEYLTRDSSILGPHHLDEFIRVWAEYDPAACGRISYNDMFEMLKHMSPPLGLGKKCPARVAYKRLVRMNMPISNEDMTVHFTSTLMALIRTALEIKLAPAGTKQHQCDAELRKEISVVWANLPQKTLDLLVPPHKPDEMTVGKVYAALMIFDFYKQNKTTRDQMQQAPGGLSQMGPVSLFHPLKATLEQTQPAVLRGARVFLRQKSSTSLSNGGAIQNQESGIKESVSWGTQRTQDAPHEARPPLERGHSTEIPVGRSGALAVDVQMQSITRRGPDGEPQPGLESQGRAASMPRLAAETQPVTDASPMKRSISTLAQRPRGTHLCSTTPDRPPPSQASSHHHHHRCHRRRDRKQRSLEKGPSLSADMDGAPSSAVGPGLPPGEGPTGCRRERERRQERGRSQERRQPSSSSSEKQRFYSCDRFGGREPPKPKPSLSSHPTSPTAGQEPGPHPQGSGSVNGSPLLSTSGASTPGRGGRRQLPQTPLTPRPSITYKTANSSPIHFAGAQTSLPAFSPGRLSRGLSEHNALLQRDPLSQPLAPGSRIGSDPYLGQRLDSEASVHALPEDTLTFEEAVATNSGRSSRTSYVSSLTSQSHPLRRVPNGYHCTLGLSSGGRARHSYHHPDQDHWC
T1 sequence (P54289 25-1103, further chain): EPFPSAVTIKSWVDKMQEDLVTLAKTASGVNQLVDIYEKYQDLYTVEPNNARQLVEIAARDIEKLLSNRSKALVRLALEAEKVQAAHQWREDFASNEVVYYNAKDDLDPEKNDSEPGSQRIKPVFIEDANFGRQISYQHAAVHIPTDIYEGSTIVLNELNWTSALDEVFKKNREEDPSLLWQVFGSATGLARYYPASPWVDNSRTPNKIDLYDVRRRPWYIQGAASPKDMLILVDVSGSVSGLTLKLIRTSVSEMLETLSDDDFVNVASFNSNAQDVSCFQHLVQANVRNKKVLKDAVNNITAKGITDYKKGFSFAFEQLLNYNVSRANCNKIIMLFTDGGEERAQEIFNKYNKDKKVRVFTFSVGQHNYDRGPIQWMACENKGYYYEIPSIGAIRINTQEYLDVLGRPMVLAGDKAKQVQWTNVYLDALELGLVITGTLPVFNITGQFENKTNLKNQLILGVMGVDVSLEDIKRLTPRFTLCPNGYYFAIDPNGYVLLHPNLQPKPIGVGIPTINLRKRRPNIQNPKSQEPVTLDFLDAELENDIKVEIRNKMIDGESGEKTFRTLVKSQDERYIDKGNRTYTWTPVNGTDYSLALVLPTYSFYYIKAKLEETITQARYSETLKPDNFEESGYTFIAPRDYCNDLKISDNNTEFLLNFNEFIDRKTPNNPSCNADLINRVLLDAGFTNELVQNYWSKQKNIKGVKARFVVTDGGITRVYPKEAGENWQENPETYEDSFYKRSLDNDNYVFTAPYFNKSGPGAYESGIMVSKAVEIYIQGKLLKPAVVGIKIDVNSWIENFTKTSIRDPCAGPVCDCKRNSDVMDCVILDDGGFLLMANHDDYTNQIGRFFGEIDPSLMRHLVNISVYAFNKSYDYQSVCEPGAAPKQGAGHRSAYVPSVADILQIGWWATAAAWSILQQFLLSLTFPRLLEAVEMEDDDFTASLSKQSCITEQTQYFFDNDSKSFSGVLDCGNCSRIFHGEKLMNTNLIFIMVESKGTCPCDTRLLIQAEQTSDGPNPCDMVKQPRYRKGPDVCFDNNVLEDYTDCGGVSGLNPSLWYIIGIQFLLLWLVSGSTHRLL
T1 sequence (P54284 whole entry, further chain): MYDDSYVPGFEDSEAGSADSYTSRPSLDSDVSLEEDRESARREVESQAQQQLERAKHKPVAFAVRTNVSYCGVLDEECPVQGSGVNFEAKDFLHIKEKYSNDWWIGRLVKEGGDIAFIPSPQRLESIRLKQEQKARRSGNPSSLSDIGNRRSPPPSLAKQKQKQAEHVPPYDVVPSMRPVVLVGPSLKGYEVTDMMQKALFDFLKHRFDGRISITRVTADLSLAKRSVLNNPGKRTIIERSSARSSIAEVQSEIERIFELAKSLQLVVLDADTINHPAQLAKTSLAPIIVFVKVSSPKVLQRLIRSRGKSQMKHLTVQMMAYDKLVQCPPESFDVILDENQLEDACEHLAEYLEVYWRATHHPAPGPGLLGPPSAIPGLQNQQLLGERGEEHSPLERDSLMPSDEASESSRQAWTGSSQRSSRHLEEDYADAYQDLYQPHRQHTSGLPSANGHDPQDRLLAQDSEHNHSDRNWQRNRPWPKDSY

Consider `CN(CC(C)(C)C)C(=O)c1c(-c2ccc(Cl)cc2)cc(C(F)(F)F)n1Cc1ccc(F)cn1` [Example 029, 3-(4-Chlorophenyl)-N-(2,2-dimethyl-propyl)-1-[(5-fluoro-pyridin-2-yl)-methyl]-N-methyl-5-(trifluoromethyl)-1H-pyrrole-2-carboxylic acid amide], for which the inhibition at 3 µM was greater than 95%.

Regarding `CCc1cc(Cn2c(C(=O)N(C)CCS(C)(=O)=O)c(-c3ccc(Cl)cc3)c(C)c2C(F)(F)F)on1` [Example 001, 3-(4-Chlorophenyl)-1-[(3-ethyl-isoxazol-5-yl)-methyl]-N,4-dimethyl-N-(2-methylsulfonyl-ethyl)-5-(trifluoromethyl)-1H-pyrrole-2-carboxylic acid amide], the inhibition at 3 µM was greater than 95%.

As to `Cc1c(-c2ccc(Cl)cc2)c(C(=O)N2CC(F)(F)C2)n(-c2cnccn2)c1C(F)(F)F` [Example 050, [3-(4-Chlorophenyl)-4-methyl-1-pyrazin-2-yl-5-(trifluoromethyl)-1H-pyrrol-2-yl]-(3,3-difluoro-azetidin-1-yl)-methanone], the inhibition at 3 µM was in the range of 75 to 95%.

As for `Cc1c(-c2ccc(Cl)cc2)c(C(=O)N2CCOCC2)n(Cc2ccnn2C)c1C(F)(F)F` [Example 016, [3-(4-Chlorophenyl)-4-methyl-1-[(2-methyl-2H-pyrazol-3-yl)-methyl]-5-(trifluoromethyl)-1H-pyrrol-2-yl]-morpholin-4-yl-methanone], the inhibition at 3 µM lay within 75 to 95%.

`Cc1cnc(Cn2c(C(=O)N3CCOCC3)c(-c3ccc(Cl)cc3)c(C)c2C(F)(F)F)cn1` [Example 042, [3-(4-Chlorophenyl)-4-methyl-1-[(5-methyl-pyrazin-2-yl)-methyl]-5-(trifluoromethyl)-1H-pyrrol-2-yl]-morpholin-4-yl-methanone]: the inhibition at 3 µM was greater than 95%.

On to `Cc1c(-c2ccc(Cl)cc2)c(C(=O)N2CCOCC2)n(Cn2ccccc2=O)c1C(F)(F)F` [Example 056, 1-[[3-(4-Chlorophenyl)-4-methyl-2-(morpholine-4-carbonyl)-5-(trifluoromethyl)-1H-pyrrol-1-yl]-methyl]-1H-pyridin-2-one], for which the inhibition at 3 µM lay within 75 to 95%.

For `Cc1c(-c2ccc(Cl)cc2)c(C(=O)N2CCOCC2)n(Cc2cccc(=O)[nH]2)c1C(F)(F)F` [Example 054, 6-[[3-(4-Chlorophenyl)-4-methyl-2-(morpholine-4-carbonyl)-5-(trifluoromethyl)-1H-pyrrol-1-yl]-methyl]-1H-pyridin-2-one], the inhibition at 3 µM lay in the range of 75 to 95%.

For `COc1cccc(Cn2c(C(=O)N3CCOCC3)c(-c3ccc(Cl)cc3)c(C)c2C(F)(F)F)n1` [Example 041, [3-(4-Chlorophenyl)-1-[(6-methoxy-pyridin-2-yl)-methyl]-4-methyl-5-(trifluoromethyl)-1H-pyrrol-2-yl]-morpholin-4-yl-methanone], the inhibition at 3 µM was greater than 95%.

For the compound `Cc1c(-c2ccc(Cl)cc2)c(C(=O)N(C)CCS(C)(=O)=O)n(Cc2ccc(F)cn2)c1C(F)(F)F` [Example 038, 3-(4-Chlorophenyl)-1-[(5-fluoro-pyridin-2-yl)-methyl]-N,4-dimethyl-N-(2-methylsulfonyl-ethyl)-5-(trifluoromethyl)-1H-pyrrole-2-carboxylic acid amide], the inhibition at 3 µM was greater than 95%.

For the compound `CN(CC(C)(C)C)C(=O)c1c(-c2ccc(Cl)cc2)cc(C(F)(F)F)n1Cc1ncccn1` [Example 037, 3-(4-Chlorophenyl)-N-(2,2-dimethyl-propyl)-N-methyl-1-(pyrimidin-2-yl-methyl)-5-(trifluoromethyl)-1H-pyrrole-2-carboxylic acid amide], the inhibition at 3 µM is greater than 95%.

As for `CN(CC(C)(C)C)C(=O)c1c(-c2ccc(Cl)cc2)cc(C(F)(F)F)n1Cc1nc(C(F)(F)F)no1` [Example 010, 3-(4-Chlorophenyl)-N-(2,2-dimethyl-propyl)-N-methyl-5-(trifluoromethyl)-1-[[3-(trifluoromethyl)-[1,2,4]oxadiazol-5-yl]-methyl]-1H-pyrrole-2-carboxylic acid amide], the inhibition at 3 µM lay in the range of 75 to 95%.

For the compound `Cc1c(-c2ccc(Cl)cc2)c(C(=O)N2CCOCC2)n(Cc2ncn(C)n2)c1C(F)(F)F` [Example 019, [3-(4-Chlorophenyl)-4-methyl-1-[(1-methyl-1H-[1,2,4]triazol-3-yl)-methyl]-5-(trifluoromethyl)-1H-pyrrol-2-yl]-morpholin-4-yl-methanone], the inhibition at 3 µM was in the range of 75 to 95%.

Regarding `Cc1c(-c2ccc(Cl)cc2)c(C(=O)N2CC(C)(O)C2)n(-c2cnccn2)c1C(F)(F)F` [Example 051, [3-(4-Chlorophenyl)-4-methyl-1-pyrazin-2-yl-5-(trifluoromethyl)-1H-pyrrol-2-yl]-(3-hydroxy-3-methyl-azetidin-1-yl)-methanone], the inhibition at 3 µM fell in the range of 40 to 75%.

In the case of `Cc1c(-c2ccc(Cl)cc2)c(C(=O)N2CCOCC2)n(Cc2ncn[nH]2)c1C(F)(F)F` [Example 060, [3-(4-Chlorophenyl)-4-methyl-1-(1H-[1,2,4]triazol-3-yl-methyl)-5-(trifluoromethyl)-1H-pyrrol-2-yl]-morpholin-4-yl-methanone], the inhibition at 3 µM lay in the range of 40 to 75%.

Regarding `Cc1c(-c2ccc(Cl)cc2)c(C(=O)NC2CC2)n(Cc2ncccn2)c1C(F)(F)F` [Example 048, 3-(4-Chlorophenyl)-N-cyclopropyl-4-methyl-1-(pyrimidin-2-yl-methyl)-5-(trifluoromethyl)-1H-pyrrole-2-carboxylic acid amide], the inhibition at 3 µM fell in the range of 40 to 75%.

On to `Cc1c(-c2ccc(Cl)cc2)c(C(=O)N2CCOC(C)(C)C2)n(Cc2ncccn2)c1C(F)(F)F` [Example 040, [3-(4-Chlorophenyl)-4-methyl-1-(pyrimidin-2-yl-methyl)-5-(trifluoromethyl)-1H-pyrrol-2-yl]-(2,2-dimethyl-morpholin-4-yl)-methanone], for which the inhibition at 3 µM lay in the range of 75 to 95%.

For the compound `Cc1nnc(Cn2c(C(F)(F)F)cc(-c3ccc(Cl)cc3)c2C(=O)N(C)CC(C)(C)C)o1` [Example 014, 3-(4-Chlorophenyl)-N-(2,2-dimethyl-propyl)-N-methyl-1-[(5-methyl-[1,3,4]oxadiazol-2-yl)-methyl]-5-(trifluoromethyl)-1H-pyrrole-2-carboxylic acid amide], the inhibition at 3 µM is 75 to 95%.

For `Cc1c(-c2ccc(Cl)cc2)c(C(=O)N2CCOCC2)n(CCn2ccccc2=O)c1C(F)(F)F` [Example 055, 1-[2-[3-(4-Chlorophenyl)-4-methyl-2-(morpholine-4-carbonyl)-5-(trifluoromethyl)-1H-pyrrol-1-yl]-ethyl]-1H-pyridin-2-one], the inhibition at 3 µM fell in the range of 40 to 75%.

As to `Cc1c(-c2ccc(Cl)cc2)c(C(=O)N2CCOCC2)n(Cc2nncs2)c1C(F)(F)F` [Example 024, [3-(4-Chlorophenyl)-4-methyl-1-([1,3,4]thiadiazol-2-yl-methyl)-5-(trifluoromethyl)-1H-pyrrol-2-yl]-morpholin-4-yl-methanone], the inhibition at 3 µM was in the range of 40 to 75%.

Regarding `Cc1c(-c2ccc(Cl)cc2)c(C(=O)N2CCOCC2)n(Cc2cncnc2)c1C(F)(F)F` [Example 052, [3-(4-Chlorophenyl)-4-methyl-1-(pyrimidin-5-yl-methyl)-5-(trifluoromethyl)-1H-pyrrol-2-yl]-morpholin-4-yl-methanone], the inhibition at 3 µM lay in the range of 40 to 75%.

Turning to `Cc1c(-c2ccc(Cl)cc2)c(C(=O)N(C)CC(C)(C)C)n(-c2cnccn2)c1C(F)(F)F` [Example 049, 3-(4-Chlorophenyl)-N-(2,2-dimethyl-propyl)-N,4-dimethyl-1-pyrazin-2-yl-5-(trifluoromethyl)-1H-pyrrole-2-carboxylic acid amide], the inhibition at 3 µM was 75 to 95%.

`Cc1noc(Cn2c(C(=O)N3CCOCC3)c(-c3ccc(Cl)cc3)c(C)c2C(F)(F)F)n1` [Example 018, [3-(4-Chlorophenyl)-4-methyl-1-[(3-methyl-[1,2,4]oxadiazol-5-yl)-methyl]-5-(trifluoromethyl)-1H-pyrrol-2-yl]-morpholin-4-yl-methanone]: the inhibition at 3 µM is greater than 95%.

Turning to `Cc1noc(Cn2c(C(F)(F)F)cc(-c3ccc(Cl)cc3)c2C(=O)N(C)CC(C)(C)C)n1` [Example 011, 3-(4-Chlorophenyl)-N-(2,2-dimethyl-propyl)-N-methyl-1-[(3-methyl-[1,2,4]oxadiazol-5-yl)-methyl]-5-(trifluoromethyl)-1H-pyrrole-2-carboxylic acid amide], the inhibition at 3 µM was greater than 95%.
